{"source": "ChEMBL document CHEMBL1212786", "about": "(Antimicrob Agents Chemother, 2010)", "key": {"Cytochrome P450 3A4": {"target": "Cytochrome P450 3A4 (Homo sapiens, UniProt P08684)", "sequence (P08684 whole entry)": "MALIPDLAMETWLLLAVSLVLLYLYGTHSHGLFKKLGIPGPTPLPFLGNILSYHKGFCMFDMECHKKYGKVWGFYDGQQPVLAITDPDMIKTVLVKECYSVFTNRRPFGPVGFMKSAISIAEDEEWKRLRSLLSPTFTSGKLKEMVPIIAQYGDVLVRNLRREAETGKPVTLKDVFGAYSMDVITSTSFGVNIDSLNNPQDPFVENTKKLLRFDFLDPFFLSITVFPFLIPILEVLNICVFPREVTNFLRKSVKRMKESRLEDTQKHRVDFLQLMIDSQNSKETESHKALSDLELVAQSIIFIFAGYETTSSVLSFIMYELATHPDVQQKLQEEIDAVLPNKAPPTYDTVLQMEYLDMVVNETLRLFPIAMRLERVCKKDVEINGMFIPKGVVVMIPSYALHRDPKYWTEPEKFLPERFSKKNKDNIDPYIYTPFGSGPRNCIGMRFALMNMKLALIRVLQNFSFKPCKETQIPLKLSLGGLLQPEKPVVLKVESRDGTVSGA", "experiment": "Inhibition of human recombinant CYP3A4 after 30 mins", "type": "ADME"}, "Cytochrome P450 2C9": {"target": "Cytochrome P450 2C9 (Homo sapiens, UniProt P11712)", "sequence (P11712 whole entry)": "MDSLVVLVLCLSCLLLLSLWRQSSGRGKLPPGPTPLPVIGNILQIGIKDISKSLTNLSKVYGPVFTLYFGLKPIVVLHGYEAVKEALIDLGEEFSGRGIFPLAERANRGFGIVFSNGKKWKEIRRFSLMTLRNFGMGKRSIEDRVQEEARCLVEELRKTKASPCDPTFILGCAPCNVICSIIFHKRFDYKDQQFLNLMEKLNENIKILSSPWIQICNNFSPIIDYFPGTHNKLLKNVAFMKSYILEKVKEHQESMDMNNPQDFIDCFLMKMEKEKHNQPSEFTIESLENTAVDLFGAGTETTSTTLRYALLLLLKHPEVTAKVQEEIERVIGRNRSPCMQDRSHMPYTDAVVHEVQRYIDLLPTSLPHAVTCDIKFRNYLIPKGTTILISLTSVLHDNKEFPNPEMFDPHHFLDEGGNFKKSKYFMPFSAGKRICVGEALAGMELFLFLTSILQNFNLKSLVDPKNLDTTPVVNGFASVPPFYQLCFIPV", "experiment": "Inhibition of human recombinant CYP2C9 after 30 mins", "type": "ADME"}, "[1]": {"experiment": "Cmax in monkey at 5 mg/kg, po after 24 hrs by LC/MS/MS analysis", "type": "ADME, organism-based, Macaca mulatta", "set-up": "dose 5 mg/kg, route oral", "conditions": "rhesus monkey, in vivo"}, "[2]": {"experiment": "Cmax in monkey at 7.5 mg/kg, po after 24 hrs by LC/MS/MS analysis", "type": "ADME, organism-based, Macaca mulatta", "set-up": "dose 7.5 mg/kg, route oral", "conditions": "rhesus monkey, in vivo"}, "[3]": {"experiment": "AUC (0 to infinity) in monkey at 7.5 mg/kg, po after 24 hrs by LC/MS/MS analysis", "type": "ADME, organism-based, Macaca mulatta", "set-up": "dose 7.5 mg/kg, route oral, time infinity", "conditions": "rhesus monkey, plasma"}, "[4]": {"experiment": "Cmax in Sprague-Dawley rat liver at 10 mg/kg, po by LC/MS/MS analysis", "type": "ADME, organism-based", "set-up": "dose 10 mg/kg, route oral"}, "Hepatitis C virus": {"tested_on": "Hepatitis C virus", "experiment": "microbe, parasite or virus in culture", "conditions": "Huh-7, 72 h"}}, "data": [{"smiles": "C/C=C/C[C@@H](C)[C@@H](O)[C@H]1C(=O)N[C@@H](CC)C(=O)N(C)C(SCCN(C)C)C(=O)N(C)[C@@H](CC(C)(C)O)C(=O)N[C@@H](C(C)C)C(=O)N(C)[C@@H](CC(C)C)C(=O)N[C@@H](C)C(=O)N[C@H](C)C(=O)N(C)[C@@H](CC(C)C)C(=O)N(C)[C@@H](CC(C)C)C(=O)N(C)[C@@H](C(C)C)C(=O)N1C", "note": "(single isomer, unassigned) [SCY 635]", "values": [{"measurement": "IC50", "setting": "Cytochrome P450 3A4", "value": 58.5, "unit": "µM"}, {"measurement": "IC50", "setting": "Cytochrome P450 2C9", "value": 13.4, "unit": "µM"}, {"measurement": "Cmax", "setting": "[1]", "value": 1810, "unit": "ng/mL"}, {"measurement": "Cmax", "setting": "[2]", "value": 1930, "unit": "ng/mL"}, {"measurement": "AUC(0-inf)", "setting": "[3]", "value": 42000, "unit": "ng·h/mL"}, {"measurement": "Cmax", "setting": "[4]", "value": 11100, "unit": "ng/mL"}, {"measurement": "EC50", "setting": "Hepatitis C virus", "value": 0.12, "unit": "µM"}]}]}
